The target in the test is T1, Phospholipase A2, membrane associated (Homo sapiens) (UniProt P14555).
T1 sequence (whole entry): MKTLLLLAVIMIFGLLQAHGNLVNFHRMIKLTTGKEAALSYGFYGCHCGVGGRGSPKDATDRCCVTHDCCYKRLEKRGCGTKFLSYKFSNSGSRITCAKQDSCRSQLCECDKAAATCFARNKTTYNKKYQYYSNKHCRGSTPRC
Description: Inhibitory activity against human synovial fluid phospholipase A2 (HSF-PLA2). More on the design: concentration or dose not given beside the values. To be noted: concentration not given here.

Here are results for 10 molecules from ChEMBL document CHEMBL1129986, “Reliability of comparative molecular field analysis models: effects of data scaling and variable selection using a set of human synovial fluid phospholipase A2 inhibitors” (J Med Chem, 1997).

On to `CCCCCCCCCCS(=O)(=O)CC(CCCCCC)COP(=O)(O)OCCO` (stereo not given), for which the inhibition is 29%.
The figure for `CCCCCCCCCCS(=O)(=O)NC(CCCCCC)COP(=O)(O)OCCCC` (stereo not given) is 0%; for `CCCCCCCCCCS(=O)(=O)NC(CCCCCC)COCC(F)(F)F` (stereo not given) it is 0%; for `CCCCCCCCCCCC(=O)NC(CCCCCC)COP(=O)(O)OCCO` (stereo not given) it is 65%.
Next, `CCCCCCCCCCS(=O)(=O)N[C@@H](CCCCCC)COP(=O)(O)OCCO`: 40%; `CCCCCCCCCCS(=O)(=O)NC(CCCCCC)COP(=O)(O)OCCO` (stereo not given): 36%.
The figure for `CCCCCCCCCCS(=O)(=O)N[C@H](CCCCCC)COP(=O)(O)OCCOCc1ccccc1` is 78%; for `CCCCCCCCCCC(=O)NC(CCCCCC)COP(=O)(O)OCCNCc1ccccc1` (stereo not given) it is 28%.
`CCCCCCCCCCS(=O)(=O)N[C@H](CCCCCC)COP(=O)(O)OCCO` (stereo in doubt; form 2) yielded an inhibition of 45%.
Next, `CCCCCCCCCCS(=O)(=O)N[C@H](CCCCCC)COP(=O)(O)OCCO` (stereo in doubt; form 1): 44%.
